Measured values taken from US20030091627A1, “Rate-controlled delivery of macrolides” (priority 2001, published 2003).
In brackets after ≈: the same amount, converted by molar mass.

Columns and labels:
[1] = Solubility of clarithromycin as a function of pH (tested in water without a buffer); type: physicochemical
[2] = Solubility of clarithromycin along the gastrointestinal tract; type: physicochemical
[3] = acidic pH; cited from earlier work

CC[C@H]1OC(=O)[C@H](C)[C@@H](O[C@H]2C[C@@](C)(OC)[C@@H](O)[C@H](C)O2)[C@H](C)[C@@H](O[C@@H]2O[C@H](C)C[C@H](N(C)C)[C@H]2O)[C@](C)(OC)C[C@@H](C)C(=O)[C@H](C)[C@@H](O)[C@]1(C)O [Clarithromycin]
solubility ([1]; aqueous buffer, pH 2.4, water without a buffer, read-out: Solubility): ~10000 µg/mL (≈ 13.4 mM)
solubility ([1]; aqueous buffer, pH 5.4, water without a buffer, read-out: Solubility): ~5500 µg/mL (≈ 7.35 mM)
solubility ([1]; pH 7.4, water without a buffer): about negligible
solubility ([2]; colon, pH 7.5 to 8.5): about insoluble
solubility ([2]; duodenum (region of the gastrointestinal tract), read-out: Solubility): 5000 µg/mL (≈ 6.68 mM)
solubility ([2]; stomach (region of the gastrointestinal tract), read-out: Solubility): 10000 µg/mL (≈ 13.4 mM)
Stability [3]: stable at an acidic pH
